In the NIST ThermoML archive (doi:10.1016/j.jct.2017.09.027):
Numbers after ± are expanded uncertainties.

Settings: 298.15 K; 100 kPa; Liquid; Vibrating tube method

| SMILES | mass density [kg/m3] |
| --- | --- |
| CC(C)CC(C)(C)C [2,2,4-trimethylpentane] | 687.32 ± 1.7 |
| N#CCCc1ccccc1 [3-phenylpropanenitrile] | 996.44 ± 2.4 |
| N#CCc1ccccc1 [benzeneacetonitrile] | 1012.89 ± 2.6 |
| C1CCCCCCC1 [cyclooctane] | 831.61 ± 2 |
| CCCCCCC [heptane] | 679.71 ± 1.6 |

Now from value to compound:

| mass density [kg/m3] | SMILES |
| --- | --- |
| 713.93 ± 1.7 | CCCCCCCCC [nonane] |
| 698.71 ± 1.7 | CCCCCCCC [octane] |
